Experimental data reported in US9855256B2, “Cyclooxygenase inhibitor and calcium channel antagonist compositions and methods for use in urological procedures” (Omeros Corporation, priority 2005, dated 2018).

Key:
PGE2 = settings: 10 μM perfusion 60 min then saline 30 min; bladders harvested at 90 min
[1] = test system: Isolated bladder smooth muscle strips; assay: Bladder strip contractility (bradykinin-induced contraction), Examples I and II; format: cell-based, rat
[2] = test system: overactive bladder function; assay: Acetic-acid overactive bladder model, intravesical local delivery, cystometry, Example V; settings: 0.2% acetic acid
Description: In this model, acute inflammation of the bladder is produced by using 0.2% acetic acid in saline as the bladder perfusion fluid and cystometry under anesthesia is performed after a recovery period from the surgical procedure.
The animals were anesthesized and bladder catheters were surgically implanted to allow irrigation of the test agents. The following cystometry parameters were monitored: intercontraction interval (ICI), trigger pressure (TP), micturition pressure (MP) and micturition volume (MV) using a Med Associates Cystometry Station and software program. […] Following the saline period, the rat bladder was infused with test agent in saline containing 0.2% acetic acid for 20 min followed by the collection of 7 representative ICI intervals for analysis.
Five to seven animals were normally tested in each group. Acidified saline served as the control. All infusion solutions were prepared fresh on the day of the experiment before use.

urinary bladder = assay: In vivo rat cystometry model, 0.2% acetic acid infusion, intravenous drug; settings: 10 mg/kg i.v.
Description: The rats were anesthetized with urethane at 1.2 g/kg i.p. in 5 ml/kg. A polyethylene catheter (PE50) was implanted into the bladder for saline or acetic acid infusion through a 3-way stopcock. A pressure transducer was connected for measurements of intravesical pressure. Warm (37° C.) saline was infused into the bladder at a constant rate of […] (1 ml/hour) until cystometry became stable (no less than 60 minutes). Thereafter, 0.2% acetic acid was infused into the urinary bladder. Aspirin (10 mg/kg i.v.) and vehicle were administered intravenously via a PE-10 catheter in the femoral vein at 5 minutes after infusion of acetic acid was started and at the end of first micturition cycle. Dunnett's test was applied for comparison between the time before and after test substance or vehicle treatment. To ascertain differences between the test substance and the vehicle control group, an unpaired Student's t test was used. Differences are considered significant at […].

SMILES: CC(C(=O)O)c1cccc(C(=O)c2ccccc2)c1 (stereo not drawn) [Ketoprofen, 3-benzoyl-α-methylbenzeneacetic acid]
- bladder tissue PGE2 levels (PGE2): 83±22 pg/mg protein
- effect on maximal tension ([1]; ketoprofen 0.25-10 μM): no apparent effect

SMILES: COC(=O)C1=C(C)NC(C)=C(C(=O)OC)C1c1ccccc1[N+](=O)[O-] [Nifedipine, 1,4-dihydro-2,6-dimethyl-4-(2-nitrophenyl)-3,5-pyridinedicarboxylic acid dimethyl ester]
- type of antagonism upon bradykinin-induced contractile responses ([1]; single agents, 10 min incubation): noncompetitive
- concentration of maximal effects on shortening of the ICI ([2]; in irrigation buffer, female rats): ~1 µM
- ICI plateau at higher concentrations, of baseline ([2]; nifedipine above 1 μM): approximately 75%

SMILES: CC(=O)Oc1ccccc1C(=O)O [aspirin]
- bladder capacity (urinary bladder): parallel changes
- effect on acetic acid induced reduction in the intercontraction interval (ICI) (urinary bladder): gradual time-dependent inhibition
- micturition pressure (urinary bladder): not affected
- threshold pressure (urinary bladder): not affected
